Reference: PubChem BioAssay (NCI)
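Growth conditions: 96-well plates. Treatment: test compound, 48 hours, 5 concentrations. Analysis: linear interpolation between bracketing concentrations; unreached endpoints set to highest concentration. The concentration for 50% growth inhibition is given as GI50. TGI: concentration producing complete growth inhibition.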

How the values were obtained:
Assay in all cases: NCI anticancer screen, dose series, 48 h
786-0 renal = system: 786-0 renal
A498 renal = system: A498 renal
A549 NSCLC = system: A549 NSCLC
ACHN renal = system: ACHN renal
BT-549 breast = system: BT-549 breast
CAKI-1 renal = system: CAKI-1 renal
CCRF-CEM leukemia = system: CCRF-CEM leukemia
COLO 205 colon = system: COLO 205 colon
DU-145 prostate = system: DU-145 prostate
EKVX NSCLC = system: EKVX NSCLC
HCC-2998 colon = system: HCC-2998 colon
HCT-116 colon = system: HCT-116 colon
HCT-15 colon = system: HCT-15 colon
HL-60(TB) leukemia = system: HL-60(TB) leukemia
HOP-62 NSCLC = system: HOP-62 NSCLC
HOP-92 NSCLC = system: HOP-92 NSCLC
HS 578T breast = system: HS 578T breast
HT29 colon = system: HT29 colon
IGROV1 ovarian = system: IGROV1 ovarian
K-562 leukemia = system: K-562 leukemia
KM12 colon = system: KM12 colon
LOX IMVI melanoma = system: LOX IMVI melanoma
M14 melanoma = system: M14 melanoma
MALME-3M melanoma = system: MALME-3M melanoma
MCF7 breast = system: MCF7 breast
MDA-MB-231 breast = system: MDA-MB-231 breast
MDA-MB-435 = system: MDA-MB-435
MOLT-4 leukemia = system: MOLT-4 leukemia
NCI-H226 lung = system: NCI-H226 lung
NCI-H23 lung = system: NCI-H23 lung
NCI-H460 lung = system: NCI-H460 lung
NCI-H522 lung = system: NCI-H522 lung
NCI/ADR-RES ovarian = system: NCI/ADR-RES ovarian
OVCAR-3 ovarian = system: OVCAR-3 ovarian
OVCAR-4 ovarian = system: OVCAR-4 ovarian
OVCAR-5 ovarian = system: OVCAR-5 ovarian
OVCAR-8 ovarian = system: OVCAR-8 ovarian
PC-3 prostate = system: PC-3 prostate
RPMI-8226 leukemia = system: RPMI-8226 leukemia
RXF 393 renal = system: RXF 393 renal
SF-268 CNS = system: SF-268 CNS
SF-295 CNS = system: SF-295 CNS
SF-539 CNS = system: SF-539 CNS
SK-MEL-2 melanoma = system: SK-MEL-2 melanoma
SK-MEL-28 melanoma = system: SK-MEL-28 melanoma
SK-MEL-5 melanoma = system: SK-MEL-5 melanoma
SK-OV-3 ovarian = system: SK-OV-3 ovarian
SN12C renal = system: SN12C renal
SNB-19 CNS = system: SNB-19 CNS
SNB-75 CNS = system: SNB-75 CNS
SR leukemia = system: SR leukemia
SW-620 colon = system: SW-620 colon
T-47D breast = system: T-47D breast
TK-10 renal = system: TK-10 renal
U251 CNS = system: U251 CNS
UACC-257 melanoma = system: UACC-257 melanoma
UACC-62 melanoma = system: UACC-62 melanoma
UO-31 renal = system: UO-31 renal

Q: Which results are given for `CS(=O)(=O)c1ccc2c(c1)c1c(n2C(=O)c2ccc(Cl)cc2)CCCC1`?
A: GI50 (786-0 renal): 3.4 µM; TGI (786-0 renal): > 100 µM; GI50 (A498 renal): > 100 µM; TGI (A498 renal): > 100 µM; GI50 (A549 NSCLC): 13.5 µM; TGI (A549 NSCLC): > 100 µM; GI50 (ACHN renal): 5.1 µM; TGI (ACHN renal): > 100 µM; GI50 (BT-549 breast): 1.64 µM; TGI (BT-549 breast): > 100 µM; GI50 (CAKI-1 renal): 2.19 µM; TGI (CAKI-1 renal): > 100 µM; GI50 (CCRF-CEM leukemia): 2.05 µM; TGI (CCRF-CEM leukemia): > 100 µM; GI50 (COLO 205 colon): 18.9 µM; TGI (COLO 205 colon): > 100 µM; GI50 (DU-145 prostate): 7.52 µM; TGI (DU-145 prostate): > 100 µM; GI50 (EKVX NSCLC): 14 µM; TGI (EKVX NSCLC): > 100 µM; GI50 (HCC-2998 colon): 16.8 µM; TGI (HCC-2998 colon): > 100 µM; GI50 (HCT-116 colon): 1.27 µM; TGI (HCT-116 colon): > 100 µM; GI50 (HCT-15 colon): 1.32 µM; TGI (HCT-15 colon): > 100 µM; GI50 (HL-60(TB) leukemia): 1.13 µM; GI50 (HOP-62 NSCLC): 4.48 µM; TGI (HOP-62 NSCLC): > 100 µM; GI50 (HOP-92 NSCLC): 2.63 µM; TGI (HOP-92 NSCLC): > 100 µM; GI50 (HS 578T breast): 1.41 µM; TGI (HS 578T breast): > 100 µM; GI50 (HT29 colon): 4.34 µM; TGI (HT29 colon): 67.4 µM; GI50 (IGROV1 ovarian): 3.34 µM; TGI (IGROV1 ovarian): > 100 µM; GI50 (K-562 leukemia): 1.31 µM; TGI (K-562 leukemia): > 100 µM; GI50 (KM12 colon): 1.59 µM; TGI (KM12 colon): > 100 µM; GI50 (LOX IMVI melanoma): 2.43 µM; TGI (LOX IMVI melanoma): > 100 µM; GI50 (M14 melanoma): 1.56 µM; TGI (M14 melanoma): > 100 µM; GI50 (MALME-3M melanoma): 7.23 µM; TGI (MALME-3M melanoma): > 100 µM; GI50 (MCF7 breast): 1.08 µM; TGI (MCF7 breast): > 100 µM; GI50 (MDA-MB-231 breast): 6.83 µM; TGI (MDA-MB-231 breast): > 100 µM; GI50 (MDA-MB-435): 0.614 µM; TGI (MDA-MB-435): 1.51 µM; GI50 (MOLT-4 leukemia): 2.86 µM; TGI (MOLT-4 leukemia): > 100 µM; GI50 (NCI-H226 lung): 4.62 µM; TGI (NCI-H226 lung): > 100 µM; GI50 (NCI-H23 lung): 28.2 µM; TGI (NCI-H23 lung): > 100 µM; GI50 (NCI-H460 lung): 1.5 µM; TGI (NCI-H460 lung): > 100 µM; GI50 (NCI-H522 lung): 0.717 µM; TGI (NCI-H522 lung): 2.57 µM; GI50 (NCI/ADR-RES ovarian): 1.4 µM; TGI (NCI/ADR-RES ovarian): > 100 µM; GI50 (OVCAR-3 ovarian): 5.01 µM; TGI (OVCAR-3 ovarian): 46.3 µM; GI50 (OVCAR-4 ovarian): 21.1 µM; TGI (OVCAR-4 ovarian): > 100 µM; GI50 (OVCAR-5 ovarian): 19.8 µM; TGI (OVCAR-5 ovarian): > 100 µM; GI50 (OVCAR-8 ovarian): 6.49 µM; TGI (OVCAR-8 ovarian): > 100 µM; GI50 (PC-3 prostate): 4.75 µM; TGI (PC-3 prostate): > 100 µM; GI50 (RPMI-8226 leukemia): 4.6 µM; TGI (RPMI-8226 leukemia): > 100 µM; GI50 (RXF 393 renal): 4.23 µM; TGI (RXF 393 renal): 40.7 µM; GI50 (SF-268 CNS): 21.5 µM; TGI (SF-268 CNS): > 100 µM; GI50 (SF-295 CNS): 1.96 µM; TGI (SF-295 CNS): > 100 µM; GI50 (SF-539 CNS): 6.31 µM; TGI (SF-539 CNS): 35 µM; GI50 (SK-MEL-2 melanoma): 1.15 µM; TGI (SK-MEL-2 melanoma): > 100 µM; GI50 (SK-MEL-28 melanoma): 2.97 µM; TGI (SK-MEL-28 melanoma): > 100 µM; GI50 (SK-MEL-5 melanoma): 2.45 µM; TGI (SK-MEL-5 melanoma): > 100 µM; GI50 (SK-OV-3 ovarian): 22.1 µM; TGI (SK-OV-3 ovarian): > 100 µM; GI50 (SN12C renal): 3.43 µM; TGI (SN12C renal): > 100 µM; GI50 (SNB-19 CNS): 4.16 µM; TGI (SNB-19 CNS): > 100 µM; GI50 (SNB-75 CNS): 5.05 µM; TGI (SNB-75 CNS): 64.9 µM; GI50 (SR leukemia): 1.1 µM; TGI (SR leukemia): > 100 µM; GI50 (SW-620 colon): 1.61 µM; TGI (SW-620 colon): > 100 µM; GI50 (T-47D breast): 2.54 µM; TGI (T-47D breast): > 100 µM; GI50 (TK-10 renal): > 100 µM; TGI (TK-10 renal): > 100 µM; GI50 (U251 CNS): 3.41 µM; TGI (U251 CNS): > 100 µM; GI50 (UACC-257 melanoma): > 100 µM; TGI (UACC-257 melanoma): > 100 µM; GI50 (UACC-62 melanoma): 1.27 µM; TGI (UACC-62 melanoma): > 100 µM; GI50 (UO-31 renal): 3.22 µM; TGI (UO-31 renal): > 100 µM
